Assay results: patent US20240262832A1, “SMALL MOLECULE MODULATORS OF GLUCOCEREBROSIDASE ACTIVITY AND USES THEREOF” (Vanqua Bio, Inc., priority 2021, published 2024)

Molecular target: T1, GCase (Homo sapiens, UniProt P04062)
T1 construct: endogenous in cells; host or cells: HeLa cells
T1 sequence (P04062 40-536): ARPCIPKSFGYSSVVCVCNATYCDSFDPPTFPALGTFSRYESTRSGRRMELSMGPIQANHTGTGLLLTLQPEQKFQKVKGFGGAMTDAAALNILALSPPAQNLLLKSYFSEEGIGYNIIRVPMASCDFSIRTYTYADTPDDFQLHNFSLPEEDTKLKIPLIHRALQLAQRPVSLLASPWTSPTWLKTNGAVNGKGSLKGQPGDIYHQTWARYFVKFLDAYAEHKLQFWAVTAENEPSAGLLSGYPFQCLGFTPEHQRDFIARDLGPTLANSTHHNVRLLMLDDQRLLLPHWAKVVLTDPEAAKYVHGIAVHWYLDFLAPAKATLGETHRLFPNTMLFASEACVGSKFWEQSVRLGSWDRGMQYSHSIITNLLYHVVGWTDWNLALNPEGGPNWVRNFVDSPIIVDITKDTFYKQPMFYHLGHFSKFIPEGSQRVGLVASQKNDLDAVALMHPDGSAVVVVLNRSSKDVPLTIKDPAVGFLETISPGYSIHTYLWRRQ
Assay: activation of GCase in a live cell PFB assay in HELA cells
Type: cell-based

`CC(C)(C)CC(=O)N1CCC(COc2cccc(C(F)(F)F)n2)CC1` [Compound 351] and `CCOc1ccccc1C(=O)N1CCC(Oc2ccc(C(F)(F)F)cn2)CC1` [Compound 391] fall in the same range of EC50: 10 to 50 µM for the first, 10 to 50 µM for the second.

First: O=C(C1CC1)N1CCC(c2cncc(N3CCCC(COc4ccccc4C(F)(F)F)C3)n2)CC1 (stereo not shown) [Compound 113, Cyclopropyl(4-(6-(3-((2-(trifluoromethyl)phenoxy)methyl)piperidin-1-yl)pyrazin-2-yl)piperidin-1-yl)methanone]
Second: C[C@@H](Oc1ccccc1C(F)(F)F)[C@@H]1CCCN(c2cnc3cnn(CC(F)F)c3n2)C1 [Compound 5b, 1-(2,2-difluoroethyl)-6-((R)-3-((R)-1-(2-(trifluoromethyl)phenoxy)ethyl)piperidin-1-yl)-1H-pyrazolo[3,4-b]pyrazine]
The EC50 of the first is lower: < 10 µM for the first, 10 to 50 µM for the second.

`c1ccc(COC2CCN(c3cnc4ccccc4n3)CC2)cc1` [Compound 417, 2-[4-(Benzyloxy)piperidin-1-yl]quinoxaline] and `c1ccc(OC2CCN(c3cnc4ccccc4n3)CC2)cc1` [Compound 414, 2-(4-Phenoxypiperidin-1-yl)quinoxaline] fall in the same range of EC50: 10 to 50 µM for the first, 10 to 50 µM for the second.

Compared with `CCn1c(-c2nncs2)nc2ncc(N3CCCC(COc4ccccc4C)C3)nc21` (stereo not shown) [Compound 30, 2-(1-Ethyl-6-(3-((o-tolyloxy)methyl)piperidin-1-yl)-1H-imidazo[4,5-b]pyrazin-2-yl)-1,3,4-thiadiazole], `Cc1ccccc1OCC1CCCN(c2cnc3cnn(-c4nncs4)c3n2)C1` (stereo not shown) [Compound 23, 2-(6-(3-((o-Tolyloxy)methyl)piperidin-1-yl)-1H-pyrazolo[3,4-b]pyrazin-1-yl)-1,3,4-thiadiazole] is lower in EC50: > 100 µM for the first, 10 to 50 µM for the second. The second is the more potent here.

`O=C(Cc1csc(-c2ccccc2)n1)N1CCC(OCCc2ccccc2)CC1` [Compound 336, 2-(2-Phenyl-1,3-thiazol-4-yl)-1-[4-(2-phenylethoxy)piperidin-1-yl]ethan-1-one] and `Cc1ccccc1CCC(=O)N1CCCC(COc2ccccc2)C1` (stereo not shown) [Compound 129] fall in the same range of EC50: 10 to 50 µM for the first, 10 to 50 µM for the second.

`FC(F)Cn1ncc2ncc(N3CCC(Oc4cc(C(F)(F)F)ccn4)CC3)nc21` [Compound 326, 1-(2,2-Difluoroethyl)-6-(4-((4-(trifluoromethyl)pyridin-2-yl)oxy)piperidin-1-yl)-1H-pyrazolo[3,4-b]pyrazine] and `C[C@@H]1CC[C@H](COc2ccnc(C(F)(F)F)c2)CN1c1cnc2cnn(CC(F)F)c2n1` [Compound 278, 1-(2,2-Difluoroethyl)-6-((2R,5S)-2-methyl-5-(((2-(trifluoromethyl)pyridin-4-yl)oxy)methyl)piperidin-1-yl)-1H-pyrazolo[3,4-b]pyrazine] fall in the same range of EC50: 10 to 50 µM for the first, 10 to 50 µM for the second.

`CC1CCC(COc2cccnc2C(F)(F)F)CN1c1cnc2cnn(C3COC3)c2n1` (stereo not shown) [Compound 117, 6-(2-Methyl-5-(((2-(trifluoromethyl)pyridin-3-yl)oxy)methyl)piperidin-1-yl)-1-(oxetan-3-yl)-1H-pyrazolo[3,4-b]pyrazine] and `C[C@H]1CC[C@@H](COc2cccnc2C(F)(F)F)CN1c1cnc2cnn(CC(F)F)c2n1` [Compound 77, 1-(2,2-Difluoroethyl)-6-((2S,5R)-2-methyl-5-(((2-(trifluoromethyl)pyridin-3-yl)oxy)methyl)piperidin-1-yl)-1H-pyrazolo[3,4-b]pyrazine] cannot be ordered by EC50: < 10 µM for the first, < 10 µM for the second.

Compared with `COc1ccc(OCC2CCN(c3cncc(C(=O)N4CCCC4)n3)CC2)cc1` [Compound 437], `COc1ccc(OCC2CCN(C(=O)c3ccc(CN4CCCC4)o3)CC2)cc1` [Compound 457] is higher in EC50: 10 to 50 µM for the first, > 100 µM for the second.

First: COc1ccc(OCC2CCN(C(=O)Nc3cccc(CN)c3)CC2)cc1 [Compound 442]
Second: COc1ccc(OCC2CCN(C(=O)Nc3ccc(C#N)cc3F)CC2)cc1 [Compound 443]
The EC50 of the first is higher: > 100 µM for the first, 50 to 100 µM for the second. The second is the more potent here.

`Cc1ccccc1OCC1CCCN(C(=O)c2cnc3cc(-c4ccccc4)n(C)c3n2)C1` (stereo not shown) [Compound 49, (5-methyl-6-phenyl-5H-pyrrolo[2,3-b]pyrazin-3-yl)(3-((o-tolyloxy)methyl)piperidin-1-yl)methanone] and `Cc1ccccc1OCC1CCCN(C(=O)c2c(-c3ccccc3)n(C)c3nccnc23)C1` (stereo not shown) [Compound 81, (5-Methyl-6-phenyl-5H-pyrrolo[2,3-b]pyrazin-7-yl)(3-((o-tolyloxy)methyl)piperidin-1-yl)methanone] fall in the same range of EC50: 10 to 50 µM for the first, 10 to 50 µM for the second.

`Cc1nc(-n2cccc2)sc1C(=O)N1CCCC(COc2ccccc2)C1` (stereo not shown) [Compound 163] and `CCc1nc2ccccc2n1CC(=O)N1CCCC(COc2ccccc2)C1` (stereo not shown) [Compound 140] fall in the same range of EC50: 10 to 50 µM for the first, 10 to 50 µM for the second.

`CC1CC(COc2cccnc2C(F)(F)F)CN(c2cnc3cnn(CC(F)F)c3n2)C1` (single isomer, unassigned) [Compound 47b] and `CC1CC(COc2cccnc2C(F)(F)F)CN(c2cnc3cnn(CC(F)(F)F)c3n2)C1` (stereo not shown) [Compound 127, 6-(3-Methyl-5-(((2-(trifluoromethyl)pyridin-3-yl)oxy)methyl)piperidin-1-yl)-1-(2,2,2-trifluoroethyl)-1H-pyrazolo[3,4-b]pyrazine] cannot be ordered by EC50: < 10 µM for the first, < 10 µM for the second.

`N#Cc1cc(C(F)(F)F)cnc1OC1CCN(C(=O)c2ccc3cc[nH]c3c2)CC1` [Compound 332, 2-((1-(1H-Indole-6-carbonyl)piperidin-4-yl)oxy)-5-(trifluoromethyl)nicotinonitrile] and `COc1ccc(C(F)(F)C(=O)N2CCCC(COc3ccccc3)C2)cc1` (stereo not shown) [Compound 152] fall in the same range of EC50: 10 to 50 µM for the first, 10 to 50 µM for the second.

`COCC1CCC(COc2cccnc2C(F)(F)F)CN1c1cnc2cnn(CC(F)F)c2n1` (stereo not shown) [Compound 295, 1-(2,2-Difluoroethyl)-6-(2-(methoxymethyl)-5-(((2-(trifluoromethyl)pyridin-3-yl)oxy)methyl)piperidin-1-yl)-1H-pyrazolo[3,4-b]pyrazine] and `C[C@@H]1CC[C@H](COc2ccncc2C(F)(F)F)CN1c1cnc2cnn(CC(F)F)c2n1` [Compound 282, 1-(2,2-Difluoroethyl)-6-((2R,5S)-2-methyl-5-(((3-(trifluoromethyl)pyridin-4-yl)oxy)methyl)piperidin-1-yl)-1H-pyrazolo[3,4-b]pyrazine] cannot be ordered by EC50: < 10 µM for the first, < 10 µM for the second.

`C[C@@H]1C[C@H](CN(C)C23CC(C2)C3)CN(c2cnc3cnn(CC(F)F)c3n2)C1` [Compound 297] and `CN(CC1CCCN(c2cnc3cnn(CC(F)F)c3n2)C1)c1cccc(C(F)(F)F)n1` (stereo not shown) [Compound 239, N-((1-(1-(2,2-Difluoroethyl)-1H-pyrazolo[3,4-b]pyrazin-6-yl)piperidin-3-yl)methyl)-N-methyl-6-(trifluoromethyl)pyridin-2-amine] fall in the same range of EC50: 10 to 50 µM for the first, 10 to 50 µM for the second.

`COc1ccc(OCC2CCN(C(=O)CN3CCCN(C)CC3)CC2)cc1` [Compound 474] and `C=CCn1ncc(CN2CCC(COc3ccc(OC)cc3)CC2)c1C` [Compound 469] cannot be ordered by EC50: > 100 µM for the first, > 100 µM for the second.

First: CC1CCC(COc2cccnc2C(F)(F)F)CN1c1cncc(-c2nncs2)n1 (stereo not shown) [Compound 232, 2-[2-Methyl-5-({[2-(trifluoromethyl)pyridin-3-yl]oxy}methyl)piperidin-1-yl]-6-(1,3,4-thiadiazol-2-yl)pyrazine]
Second: FC(F)Cn1ncc2cnc(N3CCCC(COc4cccnc4C(F)(F)F)C3)nc21 (stereo not shown) [Compound 119, 1-(2,2-difluoroethyl)-6-(3-(((2-(trifluoromethyl)pyridin-3-yl)oxy)methyl)piperidin-1-yl)-1H-pyrazolo[3,4-d]pyrimidine]
The EC50 of the first is lower: < 10 µM for the first, 10 to 50 µM for the second. The first is the more potent here.

Going from `FC(F)Cn1ncc2ncc(N3CCCC(COc4nccnc4Cl)C3)nc21` (stereo not shown) [Compound 69, 6-(3-(((3-Chloropyrazin-2-yl)oxy)methyl)piperidin-1-yl)-1-(2,2-difluoroethyl)-1H-pyrazolo[3,4-b]pyrazine] to `CN(CC1CCCN(c2ncccc2C(F)(F)F)C1)c1cnc2cnn(CC(F)F)c2n1` (stereo not shown) [Compound 289, 1-(2,2-Difluoroethyl)-N-methyl-N-((1-(3-(trifluoromethyl)pyridin-2-yl)piperidin-3-yl)methyl)-1H-pyrazolo[3,4-b]pyrazin-6-amine], the EC50 falls from > 100 µM to < 10 µM. The second is the more potent here.

`COCCNc1nc2cc(C(=O)N3CCC(O)(CO)CC3)ccc2n1C` [Compound 486] and `Cc1cc(C(=O)N2CCCC(COc3ccccc3)C2)c(C)n1C(C)C` (stereo not shown) [Compound 170] fall in the same range of EC50: 10 to 50 µM for the first, 10 to 50 µM for the second.

First: FC(F)Cn1ncc2ncc(N3CC4CC4(COc4cccnc4C(F)(F)F)C3)nc21 (stereo not shown) [Compound 260, 3-[1-(2,2-Difluoroethyl)-1H-pyrazolo[3,4-b]pyrazin-6-yl]-1-({[2-(trifluoromethyl)pyridin-3-yl]oxy}methyl)-3-azabicyclo[3.1.0]hexane]
Second: CCn1c(=O)n(CC)c2nc(N3C[C@@H](C)C[C@@H](COc4cccnc4C(F)(F)F)C3)cnc21 [Compound 288a, 1,3-Diethyl-5-((3S,5R)-3-methyl-5-(((2-(trifluoromethyl)pyridin-3-yl)oxy)methyl)piperidin-1-yl)-1,3-dihydro-2H-imidazo[4,5-b]pyrazin-2-one]
The EC50 of the first is higher: 10 to 50 µM for the first, < 10 µM for the second. The second is the more potent here.

`O=C(c1cnn(-c2ccc(Cl)cc2)n1)N1CCCC(COc2ccccc2)C1` (stereo not shown) [Compound 147] and `COC(C(=O)N1CCCC(COc2ccccc2)C1)c1ccc(Cl)cc1` (stereo not shown) [Compound 153] fall in the same range of EC50: 10 to 50 µM for the first, 10 to 50 µM for the second.

First: COc1ccc(OCC2CCN(Cc3c[nH]c(C#N)c3)CC2)cc1 [Compound 456]
Second: COc1cccc(C(C(=O)N2CCCC(COc3ccccc3)C2)C(C)C)c1 (stereo not shown) [Compound 141]
The EC50 of the first is lower: < 10 µM for the first, 10 to 50 µM for the second.

`O=C(CC12CCC(CC1)C2)N1CCCC(COc2ccccc2)C1` (stereo not shown) [Compound 213] and `O=C(N1CCCC(COc2ccccc2)C1)C12CC3CC(CC(C3)C1)C2` (stereo not shown) [Compound 204] fall in the same range of EC50: 10 to 50 µM for the first, 10 to 50 µM for the second.
